This is an account of results in patent US4891432A, “Phenoxy imidazole compound” (Yamanouchi Pharmaceutical Co., Ltd., priority 1986, dated 1990).

Where two headings read alike, the source gives them in different places.

The test system of series [1] is mouse mammalian MM-46 tumor. The experiment in a line: Test 3: Test against mouse mammalian MM-46 tumor. Format: in vivo, C3H/He/SLC mice. The protocol: Test against mouse mammalian MM-46 tumor
MM-46 tumor cells, 1×10^6, on day 6 after intraperitonal transplantation to C3 H/He/SLC mice, were intraperitoneally transplanted to C3H/He/SlC mice (6 week age, male)--10 mice to a group. The active component was orally administered in a definite dose 24 hours after the transplantation according to the schedule shown in Table 2. The tumor growth inhibition was evaluated as the percentage of the median survival day of the administered group versus that of the control group, according to the following equation.
T: median survival day of the administered group
C: median survival day of the control group

The test system of a further series is mouse M5076 solid tumor. The experiment in a line: Test 4: Anti-tumor test against mouse M5076 solid tumor. Format: in vivo, BDF1/SLC mice. Particulars: p.o. (1-9 days), day 14. The protocol: Anti-tumor test against mouse M5076 solid tumor
M5076 Tumor cells, 1×10^6, on day 14 after intraperitoneal transplantation to C57BL16/cRJ mice, were subcutaneously transplanted to the left abdomen of BDF1/SLC mice (8 week age, male)--10 mice to a group (20 mice for the control group). The active component was orally administered in a definite dose 24 hours after the transplantation according to the schedule shown in Table 3. The tumor growth inhibition was assessed by measuring the weight of each tumor on days 14 after the transplantation, and determining the tumor growth inhibition rate of the active component-administered group to the control group, according to the following equation.
(§1) Growth inhibition rate (%)=(C-T)/C×100
(§2) T: mean tumor weight in the active-component-administered group
(§3) C: mean tumor weight on the control group

The test system of series [2] is mouse leukemia L1210 cells. The experiment in a line: Effectiveness against mouse leukemia L1210 cells (in vitro test), cytotoxicity by trypan blue dye exclusion. Particulars: Mus musculus, read-out: IC50 (mean dose producing 50%-killing of tumor cells). Format: cell-based. The protocol: Effectiveness against mouse leukemia L1210 cells (in vitro test)
A suspension of cells in culture medium was transferred into wells in a microplate in an amount of 1×10^5 L1210-cells/well. Test sample diluted with a culture medium was added to the suspension in each well, and the mixture was incubated on the medium at 37° C. for 3 days in an atmosphere of air containing 5% carbon dioxide.
Thereafter, the incubated cells were recovered from the microplate and the number of live cells was counted by the dye exclusion test using a 0.5% solution of trypan blue and by using a hemocytometer.

The test system of series [3] is Ehrlich solid tumor. The experiment in a line: Test 5: Antitumor test against Ehrlich solid tumor. In kind it is in vivo, ddY/SLC mice. Particulars: intraperitoneal (1 to 9 days), day 21. Here is the method:
Antitumor test against Ehrlich solid tumor
Ehrlich tumor cells, 3×10^6, on Day 6 after intraperitoneal transplantation to ddY/SLC mice, were subcutaneously transplanted in the left abdomen of ddY/SLC mice (5 week age, male)--10 mice to a group (37 mice for the control group). The active component was intraperitoneally administered in a definite dose 24 hours after the transplantation, according to the scheduled shown in Table 4. The tumor growth inhibition was assessed by measuring the weight of each tumor on the 21th day after transplantation, and determining the tumor growth inhibition rate of the active component-administered group to the control group, according to the following equation.
as §1, §2, §3

A short description of series [4]: Toxicity test (acute toxicity). Format: in vivo. Particulars: mouse, in vivo, male ddY mice. The protocol: (§4) The active component (the Compound of Example 45) was orally administered to ddY mice (mean body weight of 30 g, male). […] Accordingly, the acute toxicity of the Compound is greater than 1,600 mg/kg (oral administration).
(§5) Accordingly, the acute toxicity of the Compound in the case of intraperitoneal administration is greater than 800 mg/kg.

The next series deals with ddY mice. The experiment in a line: Toxicity test (acute toxicity). Format: in vivo. Particulars: intraperitoneal, up to a dose of 800 mg/kg. Here is the method: as §4, §5
Series [5] concerns Ehrlich solid tumor. The experiment in a line: Test 2: Anti-tumor test against Ehrlich solid tumor. Particulars: Mus musculus, Ehrlich, ip, 504 h, read-out: Growth Inhibition Rate; for inhibition in vivo at 100 mg/kg: i.p., days 1 through 9, tumor weight day 21. Format: in vivo, ddY/SLC mice. The protocol: Anti-tumor test against Ehrlich solid tumor
Ehrlich tumor cells, 2×10^6, on Day 7 after intraperitoneal transplantation to ddY/SLC mice, were subcutaneously transplanted in the left abdomen of ddY/SLC mice (5week age, male)--10 to a group. The active component was intraperitoneally administered in a definite dose 24 hours after the transplantation. (administration: once per one day; 1 through 9 days)
as §1
T: mean tumor weight in the active component-administered group
c: mean tumor weight in the control group

The mark [6] stands for this setting: 72 h, L1210 cells, 3 days, 37° C.

Consider `O=c1[nH]c(=O)n(C2CCCO2)cc1F` (stereo not drawn) [Tetrahydrofuryl-5-fluorouracil, reference compound], for which, in series [1] (100 mg/kg, p.o. (1-6 days)), the “Median Survival Day” value amounted to 6.0 days, the “No. of 20-day Survivors” value is 0/10 and the “T/C (median survival)” value is listed as 85.7%. In series [1] (200 mg/kg, p.o. (1-6 days)), the “Median Survival Day” value was 7.0 days, the “No. of 20-day Survivors” value was 0/10 and the “T/C (median survival)” value worked out at 100%. For the same molecule, in the series with mouse M5076 solid tumor (100 mg/kg), the “Growth Inhibition Rate” value is 14.8% and the “Weight of Tumor” value was 0.52 ± 0.19 g. In the series on mouse M5076 solid tumor (200 mg/kg), the “Growth Inhibition Rate” value was found to be 39.3% and the “Weight of Tumor” value is 0.37 ± 0.08 g.

For orientation: IC50 means the point on the concentration scale where inhibition reaches its midpoint. As a reminder, the LD50 is the dose expected to kill half of the subjects tested. A low value points to a more toxic substance. As for `CC(C)(CCCCOc1ccc(OCCCCCn2ccnc2)cc1)C(=O)O` [Example 45, 6-[p-[5-(1-imidazolyl)pentyloxy]phenoxy]-2,2-dimethylhexanoic acid], the IC50 in series [2] (setting [6]) came to 42.5 µM. In addition, the “Median Survival Day” value in series [1] (100 mg/kg, p.o. (1-6 days)) was 8.0 days; in series [1] (200 mg/kg, p.o. (1-6 days)) it was 8.0 days; in series [1] (400 mg/kg, p.o. (1-6 days)), 8.0 days; in series [1] (800 mg/kg, p.o. (1-8 days)), 10.0 days. In addition, the “No. of 20-day Survivors” value in series [1] (100 mg/kg, p.o. (1-6 days)) was 0/10; in series [1] (200 mg/kg, p.o. (1-6 days)), 0/10; in series [1] (400 mg/kg, p.o. (1-6 days)), 0/10; in series [1] (800 mg/kg, p.o. (1-8 days)), 0/10. The “T/C (median survival)” value is on record as 114.3% in series [1] (100 mg/kg, p.o. (1-6 days)); 114.3% in series [1] (200 mg/kg, p.o. (1-6 days)); 114.3% in series [1] (400 mg/kg, p.o. (1-6 days)); 142.9% in series [1] (800 mg/kg, p.o. (1-8 days)). For the same molecule, the “Growth Inhibition Rate” value came out at 13.1% in the series on mouse M5076 solid tumor (100 mg/kg); 19.7% in the series with mouse M5076 solid tumor (200 mg/kg); 11.5% in the series on mouse M5076 solid tumor (400 mg/kg); 23.0% in the series with mouse M5076 solid tumor (800 mg/kg); 29.9% in the series with Ehrlich solid tumor [3] (50 mg/kg); 49.1% with Ehrlich solid tumor [3] (100 mg/kg). Also, the “Growth Inhibition Rate” value is reported as 63.6% in the series with Ehrlich solid tumor [3] (200 mg/kg) and 57.6% in the series with Ehrlich solid tumor [3] (400 mg/kg). Further, the “Weight of Tumor” value in the series with mouse M5076 solid tumor (100 mg/kg) was determined as 0.53 ± 0.09 g; with mouse M5076 solid tumor (200 mg/kg), 0.49 ± 0.14 g; in the series with mouse M5076 solid tumor (400 mg/kg), 0.54 ± 0.12 g; in the series on mouse M5076 solid tumor (800 mg/kg), 0.47 ± 0.09 g; with Ehrlich solid tumor [3] (50 mg/kg), 2.81 ± 1.55 g; in the series on Ehrlich solid tumor [3] (100 mg/kg), 2.04 ± 1.26 g. For the same molecule, the “Weight of Tumor” value in the series with Ehrlich solid tumor [3] (200 mg/kg) came out at 1.46 ± 0.50 g; in the series on Ehrlich solid tumor [3] (400 mg/kg), 1.70 ± 0.60 g. Also, the LD50 was more than 800 mg/kg in series [4] (ip, intraperitoneal administration) and more than 1600 mg/kg in series [4] (oral administration). Further, the death entry in the series on ddY mice is “no example of death was noted”.

Regarding `CCOC(=O)C(C)(C)CCCCOc1ccc(OCCCCCOc2ccncc2)cc1` [Example 41], the IC50 in series [2] (setting [6]) came to 7.4 µM. Besides, the inhibition in vivo at 100 mg/kg in the series on Ehrlich solid tumor [5] came to 38.7%.

For `O=c1[nH]cc(F)c(=O)[nH]1` [5-Fluorouracil, reference compound], the IC50 in series [2] (L1210, 72 h) was found to be 0.41 µM. The inhibition in vivo at 25 mg/kg in the series on Ehrlich solid tumor [5] came out at 61%. In the series with Ehrlich solid tumor [3] (12.5 mg/kg), the “Growth Inhibition Rate” value was found to be 36.4% and the “Weight of Tumor” value is 2.55 ± 1.21 g. Besides, in the series on Ehrlich solid tumor [3] (25 mg/kg), the “Growth Inhibition Rate” value is 45.6% and the “Weight of Tumor” value is recorded as 2.18 ± 0.96 g.

Take `CC(C)(CCCCOc1ccc(OCCCCCn2ccnc2)cc1)C(=O)NC1CCCCC1` [Example 52]: the IC50 in series [2] (setting [6]) is 3.6 µM. Moreover, in the series with Ehrlich solid tumor [5], the inhibition in vivo at 100 mg/kg is 55.7%.

`CCOC(=O)C(C)(C)CCCCOc1ccc(OCCCCCOc2ccccn2)cc1` [Example 35, ethyl 6-[p-[5-(2-pyridyloxy)pentyloxy]phenoxy]-2,2-dimethylhexanoate]: the IC50 in series [2] (setting [6]) worked out at 8.6 µM. The inhibition in vivo at 100 mg/kg with Ehrlich solid tumor [5] was 35.9%.
